The text below walks through data of ChEMBL document CHEMBL1909046, “DrugMatrix in vitro pharmacology data”.

Cytochrome P450 2E1, sequence (P05181 whole entry): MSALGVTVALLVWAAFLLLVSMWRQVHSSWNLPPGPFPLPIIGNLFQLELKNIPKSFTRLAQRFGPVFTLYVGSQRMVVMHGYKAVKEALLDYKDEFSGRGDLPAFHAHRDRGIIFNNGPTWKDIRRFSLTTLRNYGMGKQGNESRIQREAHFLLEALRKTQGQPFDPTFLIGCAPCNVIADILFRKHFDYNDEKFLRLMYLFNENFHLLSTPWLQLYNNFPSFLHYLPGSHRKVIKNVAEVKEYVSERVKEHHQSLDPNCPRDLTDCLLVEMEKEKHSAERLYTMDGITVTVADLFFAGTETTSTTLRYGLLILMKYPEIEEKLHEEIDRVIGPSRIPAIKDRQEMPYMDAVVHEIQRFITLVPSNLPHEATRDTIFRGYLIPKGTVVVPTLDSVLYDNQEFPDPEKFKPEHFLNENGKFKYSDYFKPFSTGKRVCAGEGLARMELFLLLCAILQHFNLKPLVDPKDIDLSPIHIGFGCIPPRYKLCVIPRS
5-hydroxytryptamine receptor 2B, sequence (P41595 whole entry): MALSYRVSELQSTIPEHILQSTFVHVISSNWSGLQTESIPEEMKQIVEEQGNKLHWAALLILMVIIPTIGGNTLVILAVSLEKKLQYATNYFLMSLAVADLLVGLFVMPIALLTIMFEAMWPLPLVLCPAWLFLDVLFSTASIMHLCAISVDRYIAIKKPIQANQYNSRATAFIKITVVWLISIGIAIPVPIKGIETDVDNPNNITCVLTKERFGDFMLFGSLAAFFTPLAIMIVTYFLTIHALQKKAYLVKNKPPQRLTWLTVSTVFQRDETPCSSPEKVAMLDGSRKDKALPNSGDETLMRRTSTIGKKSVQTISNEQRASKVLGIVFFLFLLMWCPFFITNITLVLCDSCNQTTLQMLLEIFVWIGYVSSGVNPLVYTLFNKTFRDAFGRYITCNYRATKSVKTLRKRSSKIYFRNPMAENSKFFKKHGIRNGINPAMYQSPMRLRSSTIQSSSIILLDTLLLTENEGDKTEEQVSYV

The target in the first data set is T1, Polyunsaturated fatty acid lipoxygenase ALOX15 (Oryctolagus cuniculus, UniProt P12530).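 Further: inhibition of 15-lipoxygenase enzyme activity measured with linoleic acid as the substrate; in other assays of this panel Not Active means under 50% inhibition at 10 µM.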
T1 sequence (P12530 whole entry): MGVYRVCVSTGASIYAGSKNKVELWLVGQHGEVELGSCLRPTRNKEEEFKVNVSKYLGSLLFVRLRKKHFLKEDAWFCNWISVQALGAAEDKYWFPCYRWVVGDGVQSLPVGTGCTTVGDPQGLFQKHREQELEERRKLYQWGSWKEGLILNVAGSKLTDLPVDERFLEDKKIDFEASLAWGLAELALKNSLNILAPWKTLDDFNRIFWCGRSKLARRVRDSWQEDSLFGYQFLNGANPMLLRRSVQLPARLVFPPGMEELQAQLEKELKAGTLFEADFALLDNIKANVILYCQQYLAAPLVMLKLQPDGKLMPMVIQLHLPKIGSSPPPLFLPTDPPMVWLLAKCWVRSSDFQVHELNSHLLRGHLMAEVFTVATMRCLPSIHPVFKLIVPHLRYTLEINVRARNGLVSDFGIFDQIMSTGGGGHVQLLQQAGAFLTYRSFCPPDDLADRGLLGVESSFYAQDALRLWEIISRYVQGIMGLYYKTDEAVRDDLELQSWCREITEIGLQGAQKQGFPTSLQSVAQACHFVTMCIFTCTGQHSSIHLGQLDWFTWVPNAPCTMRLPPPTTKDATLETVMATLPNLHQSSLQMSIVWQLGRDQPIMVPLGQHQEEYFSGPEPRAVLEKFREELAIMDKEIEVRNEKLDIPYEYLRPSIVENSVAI
Description: biochemical. The class given is tissue-based, Reticulocytes. Particulars: reticulocytes.
`CC1(C)S[C@@H]2[C@H](NC(=O)[C@H](N)c3ccc(O)cc3)C(=O)N2[C@H]1C(=O)O` [AMOXICILLIN]: the IC50 entry is given as “Not Active”.

In the case of `NS(=O)(=O)c1cc2c(cc1Cl)NCNS2(=O)=O` [HYDROCHLOROTHIAZIDE], the IC50 result is on record as “Not Active”.

For another data set, the target named is T2, C-X-C chemokine receptor type 2 (Homo sapiens, UniProt P25025). Further: in other assays of this panel Not Active means under 50% inhibition at 10 µM.
T2 sequence (P25025 whole entry): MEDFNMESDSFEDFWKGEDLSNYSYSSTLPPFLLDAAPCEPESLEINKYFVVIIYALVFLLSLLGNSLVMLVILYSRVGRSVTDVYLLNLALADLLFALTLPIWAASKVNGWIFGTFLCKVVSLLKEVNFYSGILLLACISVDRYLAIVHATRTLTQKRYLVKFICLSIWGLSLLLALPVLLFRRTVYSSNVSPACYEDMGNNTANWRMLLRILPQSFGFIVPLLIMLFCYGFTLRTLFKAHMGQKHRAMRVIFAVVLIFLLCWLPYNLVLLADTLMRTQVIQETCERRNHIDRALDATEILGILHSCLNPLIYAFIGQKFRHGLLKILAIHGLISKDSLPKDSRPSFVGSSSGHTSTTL
Assay: not given
As to conditions: cho-k1. Type of data set: cell membranes, Membrane.
On to `CC1(C)S[C@@H]2[C@H](NC(=O)[C@H](N)c3ccc(O)cc3)C(=O)N2[C@H]1C(=O)O` [AMOXICILLIN], for which the IC50 result is “Not Active”.

Regarding `NS(=O)(=O)c1cc2c(cc1Cl)NCNS2(=O)=O` [HYDROCHLOROTHIAZIDE], the IC50 entry is reported as “Not Active”.

The target of a further data set is T3, Alpha-1B adrenergic receptor (Rattus norvegicus, UniProt P15823).
T3 sequence (P15823 whole entry): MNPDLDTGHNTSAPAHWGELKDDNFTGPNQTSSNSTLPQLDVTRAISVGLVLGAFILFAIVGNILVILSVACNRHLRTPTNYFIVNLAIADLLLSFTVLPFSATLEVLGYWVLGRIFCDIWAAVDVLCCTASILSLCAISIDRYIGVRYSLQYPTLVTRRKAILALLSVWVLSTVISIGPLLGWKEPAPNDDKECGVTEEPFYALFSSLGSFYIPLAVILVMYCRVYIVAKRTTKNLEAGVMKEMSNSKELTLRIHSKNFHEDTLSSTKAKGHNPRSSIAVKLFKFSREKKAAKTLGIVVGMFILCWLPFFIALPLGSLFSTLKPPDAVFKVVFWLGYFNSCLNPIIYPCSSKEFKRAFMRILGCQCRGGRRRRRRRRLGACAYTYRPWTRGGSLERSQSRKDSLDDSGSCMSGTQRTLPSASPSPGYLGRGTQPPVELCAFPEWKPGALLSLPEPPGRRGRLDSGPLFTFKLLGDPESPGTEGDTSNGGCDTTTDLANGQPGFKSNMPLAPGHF
Description: DRUGMATRIX: Alpha-1B adrenergic receptor radioligand binding (ligand: prazosin). Type of data set: cell membranes, Wistar, Liver, Membrane. As to conditions: Not Active = under 50% inhibition at 10 µM.
In the case of `CC1(C)S[C@@H]2[C@H](NC(=O)[C@H](N)c3ccc(O)cc3)C(=O)N2[C@H]1C(=O)O` [AMOXICILLIN], the IC50 result is on record as “Not Active”.

On to `NS(=O)(=O)c1cc2c(cc1Cl)NCNS2(=O)=O` [HYDROCHLOROTHIAZIDE], for which the IC50 entry is given as “Not Active”.

The next data set concerns the target 5-hydroxytryptamine receptor 2B (Homo sapiens, UniProt P41595). Further: in other assays of this panel Not Active means under 50% inhibition at 10 µM.
Assay: not given
Particulars: cho-k1. The class given is cell membranes, CHO-K1, Membrane.
As for `CC1(C)S[C@@H]2[C@H](NC(=O)[C@H](N)c3ccc(O)cc3)C(=O)N2[C@H]1C(=O)O` [AMOXICILLIN], the IC50 entry was “Not Active”.

Turning to `NS(=O)(=O)c1cc2c(cc1Cl)NCNS2(=O)=O` [HYDROCHLOROTHIAZIDE], the IC50 result is given as “Not Active”.

For the next data set, the target named is Histamine H2 receptor (Homo sapiens, UniProt P25021). Further: in other assays of this panel Not Active means under 50% inhibition at 10 µM.
Histamine H2 receptor, sequence (P25021 whole entry): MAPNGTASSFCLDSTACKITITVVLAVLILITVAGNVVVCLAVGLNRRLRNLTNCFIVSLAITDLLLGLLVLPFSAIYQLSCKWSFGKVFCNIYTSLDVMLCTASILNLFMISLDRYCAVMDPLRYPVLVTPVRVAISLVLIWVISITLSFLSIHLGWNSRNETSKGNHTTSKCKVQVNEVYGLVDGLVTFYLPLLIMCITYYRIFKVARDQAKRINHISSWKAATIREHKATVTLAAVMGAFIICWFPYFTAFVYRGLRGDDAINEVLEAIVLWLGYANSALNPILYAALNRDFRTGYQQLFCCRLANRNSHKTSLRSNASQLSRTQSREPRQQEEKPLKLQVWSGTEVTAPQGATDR
Assay: not given
Type of data set: cell membranes, CHO-K1, Membrane. Particulars: cho-k1.
For `CC1(C)S[C@@H]2[C@H](NC(=O)[C@H](N)c3ccc(O)cc3)C(=O)N2[C@H]1C(=O)O` [AMOXICILLIN], the IC50 entry is listed as “Not Active”.

As to `NS(=O)(=O)c1cc2c(cc1Cl)NCNS2(=O)=O` [HYDROCHLOROTHIAZIDE], the IC50 result is “Not Active”.

The next data set concerns the target Cytochrome P450 2E1 (Homo sapiens, UniProt P05181). Further: in other assays of this panel Not Active means under 50% inhibition at 10 µM.
Assay: not given
Particulars: bti-tn-5b1-4.
As for `CC1(C)S[C@@H]2[C@H](NC(=O)[C@H](N)c3ccc(O)cc3)C(=O)N2[C@H]1C(=O)O` [AMOXICILLIN], the IC50 result is “Not Active” and the Ki result is “Not Active”.

Consider `NS(=O)(=O)c1cc2c(cc1Cl)NCNS2(=O)=O` [HYDROCHLOROTHIAZIDE], for which the IC50 result is reported as “Not Active” and the Ki entry is reported as “Not Active”.

System in the next data set: not listed separately
As to the kind of experiment: DRUGMATRIX: GABAA, Chloride Channel, TBOB radioligand binding (ligand: [3H] TBOB). As to conditions: Not Active = under 50% inhibition at 10 µM. The class given is cell membranes, Rattus norvegicus, Wistar, Cerebral cortex, Membrane.
In the case of `CC1(C)S[C@@H]2[C@H](NC(=O)[C@H](N)c3ccc(O)cc3)C(=O)N2[C@H]1C(=O)O` [AMOXICILLIN], the IC50 entry was “Not Active” and the Ki entry is “Not Active”.

In the case of `NS(=O)(=O)c1cc2c(cc1Cl)NCNS2(=O)=O` [HYDROCHLOROTHIAZIDE], the IC50 result is “Not Active” and the Ki entry was “Not Active”.

Another data set deals with 5-hydroxytryptamine receptor 6 (Homo sapiens, UniProt P50406).
5-hydroxytryptamine receptor 6, sequence (P50406 whole entry): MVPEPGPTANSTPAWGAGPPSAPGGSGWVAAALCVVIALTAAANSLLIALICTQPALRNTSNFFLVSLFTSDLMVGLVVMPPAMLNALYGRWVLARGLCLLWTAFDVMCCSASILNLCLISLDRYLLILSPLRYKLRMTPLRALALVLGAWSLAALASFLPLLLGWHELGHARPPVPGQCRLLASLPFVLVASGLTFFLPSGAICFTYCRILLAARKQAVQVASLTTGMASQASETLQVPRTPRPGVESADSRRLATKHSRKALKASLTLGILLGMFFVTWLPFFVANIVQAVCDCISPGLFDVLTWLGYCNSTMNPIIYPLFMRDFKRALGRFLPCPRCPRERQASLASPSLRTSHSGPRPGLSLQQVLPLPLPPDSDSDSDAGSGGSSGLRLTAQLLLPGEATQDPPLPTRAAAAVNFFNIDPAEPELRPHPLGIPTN
Assay: not given
Particulars: hela. The class given is cell membranes, HeLa, Membrane.
Take `CC1(C)S[C@@H]2[C@H](NC(=O)[C@H](N)c3ccc(O)cc3)C(=O)N2[C@H]1C(=O)O` [AMOXICILLIN]: the IC50 result is reported as “Not Active”.

`NS(=O)(=O)c1cc2c(cc1Cl)NCNS2(=O)=O` [HYDROCHLOROTHIAZIDE]: the IC50 entry is recorded as “Not Active”.

The target of another data set is D(1A) dopamine receptor (Homo sapiens, UniProt P21728). Description: DRUGMATRIX: Dopamine D1 radioligand binding (ligand: [3H] SCH-23390). The class given is cell membranes, CHO, Membrane. As to conditions: cho; Not Active = under 50% inhibition at 10 µM.
D(1A) dopamine receptor, sequence (P21728 whole entry): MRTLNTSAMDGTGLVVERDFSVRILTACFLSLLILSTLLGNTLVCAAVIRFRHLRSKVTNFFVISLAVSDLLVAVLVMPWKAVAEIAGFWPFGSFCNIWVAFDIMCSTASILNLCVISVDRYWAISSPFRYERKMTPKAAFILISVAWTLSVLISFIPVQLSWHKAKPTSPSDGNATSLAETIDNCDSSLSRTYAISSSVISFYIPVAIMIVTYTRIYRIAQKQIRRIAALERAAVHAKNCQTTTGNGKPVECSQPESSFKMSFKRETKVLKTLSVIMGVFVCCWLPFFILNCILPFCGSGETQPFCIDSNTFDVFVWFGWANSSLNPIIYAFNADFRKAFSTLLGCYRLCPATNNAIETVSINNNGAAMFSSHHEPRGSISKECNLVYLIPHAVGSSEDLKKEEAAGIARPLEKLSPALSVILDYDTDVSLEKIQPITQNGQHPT
As for `CC1(C)S[C@@H]2[C@H](NC(=O)[C@H](N)c3ccc(O)cc3)C(=O)N2[C@H]1C(=O)O` [AMOXICILLIN], the IC50 entry is on record as “Not Active”.

Consider `NS(=O)(=O)c1cc2c(cc1Cl)NCNS2(=O)=O` [HYDROCHLOROTHIAZIDE], for which the IC50 result is “Not Active”.

The target of another data set is Cytochrome P450 2D6 (Homo sapiens, UniProt P10635). Further: in other assays of this panel Not Active means under 50% inhibition at 10 µM.
Cytochrome P450 2D6, sequence (P10635 whole entry): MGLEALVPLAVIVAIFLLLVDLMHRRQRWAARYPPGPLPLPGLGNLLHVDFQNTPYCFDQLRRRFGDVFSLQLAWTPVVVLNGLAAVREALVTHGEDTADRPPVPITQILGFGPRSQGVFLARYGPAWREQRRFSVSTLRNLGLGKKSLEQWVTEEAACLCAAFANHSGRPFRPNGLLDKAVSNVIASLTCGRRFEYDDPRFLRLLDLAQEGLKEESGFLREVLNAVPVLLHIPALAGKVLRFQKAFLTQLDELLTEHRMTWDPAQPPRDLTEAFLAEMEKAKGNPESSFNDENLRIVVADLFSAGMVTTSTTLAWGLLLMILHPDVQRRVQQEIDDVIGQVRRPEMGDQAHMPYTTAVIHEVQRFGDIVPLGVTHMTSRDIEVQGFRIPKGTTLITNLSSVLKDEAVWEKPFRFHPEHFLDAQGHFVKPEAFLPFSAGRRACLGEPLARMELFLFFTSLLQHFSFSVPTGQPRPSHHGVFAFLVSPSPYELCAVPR
Assay: not given
As to conditions: bti-tn-5b1-4.
As to `CC1(C)S[C@@H]2[C@H](NC(=O)[C@H](N)c3ccc(O)cc3)C(=O)N2[C@H]1C(=O)O` [AMOXICILLIN], the IC50 result is on record as “Not Active” and the Ki entry was “Not Active”.

For `NS(=O)(=O)c1cc2c(cc1Cl)NCNS2(=O)=O` [HYDROCHLOROTHIAZIDE], the IC50 entry is listed as “Not Active” and the Ki entry is given as “Not Active”.

System in the next data set: not listed separately
Description: DRUGMATRIX: Calcium Channel Type L, Benzothiazepine radioligand binding (ligand: [3H] Diltiazem). The class given is cell membranes, Rattus norvegicus, Wistar, Brain, Membrane. Particulars: Not Active = under 50% inhibition at 10 µM.
`CC1(C)S[C@@H]2[C@H](NC(=O)[C@H](N)c3ccc(O)cc3)C(=O)N2[C@H]1C(=O)O` [AMOXICILLIN]: the IC50 result is “Not Active” and the Ki entry was “Not Active”.

Turning to `NS(=O)(=O)c1cc2c(cc1Cl)NCNS2(=O)=O` [HYDROCHLOROTHIAZIDE], the IC50 result is “Not Active” and the Ki entry is “Not Active”.

A further data set deals with Beta-3 adrenergic receptor (Homo sapiens, UniProt P13945). Description: DRUGMATRIX: Adrenergic beta3 radioligand binding (ligand: [125I] Cyanopindolol). The class given is cell membranes, HEK293, Membrane. As to conditions: hek293; Not Active = under 50% inhibition at 10 µM.
Beta-3 adrenergic receptor, sequence (P13945 whole entry): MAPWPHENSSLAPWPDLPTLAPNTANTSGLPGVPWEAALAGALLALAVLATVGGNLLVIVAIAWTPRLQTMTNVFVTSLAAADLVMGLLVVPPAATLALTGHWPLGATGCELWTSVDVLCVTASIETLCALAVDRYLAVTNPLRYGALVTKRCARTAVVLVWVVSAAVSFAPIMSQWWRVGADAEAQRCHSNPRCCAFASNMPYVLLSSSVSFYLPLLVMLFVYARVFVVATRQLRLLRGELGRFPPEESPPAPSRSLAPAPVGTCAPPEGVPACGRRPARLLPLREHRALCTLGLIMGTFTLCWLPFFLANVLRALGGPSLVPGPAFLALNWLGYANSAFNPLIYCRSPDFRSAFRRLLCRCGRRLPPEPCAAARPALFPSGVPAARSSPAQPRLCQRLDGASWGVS
As for `CC1(C)S[C@@H]2[C@H](NC(=O)[C@H](N)c3ccc(O)cc3)C(=O)N2[C@H]1C(=O)O` [AMOXICILLIN], the IC50 result was “Not Active”.

In the case of `NS(=O)(=O)c1cc2c(cc1Cl)NCNS2(=O)=O` [HYDROCHLOROTHIAZIDE], the IC50 entry was “Not Active”.

For another data set, the target named is T4, Adenosine receptor A3 (Homo sapiens, UniProt P0DMS8).
T4 sequence (P0DMS8 whole entry): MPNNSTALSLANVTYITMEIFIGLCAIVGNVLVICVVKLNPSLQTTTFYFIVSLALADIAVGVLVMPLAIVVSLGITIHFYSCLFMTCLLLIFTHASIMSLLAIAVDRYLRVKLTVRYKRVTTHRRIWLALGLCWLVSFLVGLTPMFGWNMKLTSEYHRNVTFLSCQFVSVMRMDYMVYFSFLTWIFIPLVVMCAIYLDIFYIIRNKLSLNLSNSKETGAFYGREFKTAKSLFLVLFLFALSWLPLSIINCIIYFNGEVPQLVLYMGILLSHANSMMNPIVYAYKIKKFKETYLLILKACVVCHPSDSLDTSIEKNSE
Assay: not given
Type of data set: cell membranes, CHO-K1, Membrane. Particulars: cho-k1.
Regarding `CC1(C)S[C@@H]2[C@H](NC(=O)[C@H](N)c3ccc(O)cc3)C(=O)N2[C@H]1C(=O)O` [AMOXICILLIN], the IC50 result is “Not Active”.

As to `NS(=O)(=O)c1cc2c(cc1Cl)NCNS2(=O)=O` [HYDROCHLOROTHIAZIDE], the IC50 result was “Not Active”.
